Data published in article PMC9697930 (International Journal of Molecular Sciences, 2022).

Assays:
[1] = MTT proliferation / drug combination assay; type: cell-based, Canine; conditions: dog, MDCKII-ABCG2 cells; MDCKII-ABCG2; comparative MTT, 48 h; read-out: antiproliferative IC50
Procedure: (§1) The viability MTT assay was employed in several experimental sets, including induction studies, comparative viability assays, and drug combinations. First, 1.3 × 10^4 (MDCKII sublines), 1.2 × 10^4 (A431 sublines), 1.5 × 10^4 (MCF-7), and 1.0 × 10^4 (primary NSCLC explants) cells were seeded in 96-well plates. After seeding, cells were left to refresh in incubator for 24 h. Secondly, the medium was removed, and the serial dilutions of the drugs or drug combinations were added to the cells. Next to these variants, a medium with 40% DMSO and vehicle-containing media were tested as nonviable and unaffected viability controls, respectively. After an additional 48 h of incubation, the cells were washed with 1 × PBS and then treated with 1 mg/mL MTT solution in Opti-MEM. Subsequently, cells were incubated for 60 min under standard conditions. After MTT treatment, generated formazan crystals were solubilized with DMSO for 10 min. Wavelengths of 570 nm (formazan) and 690 nm (background) were used for absorbance measurements using a microplate reader Infinite 200 Pro NanoQuant (Tecan, Männedorf, Switzerland).
(§2) In vitro cell lines (MDCKII and A431) and primary NSCLC explants were seeded (see densities above) in 96-well plates and incubated for 24 h. […] Combined cells were incubated with the tested compounds for 48 h, and subsequently, MTT assay was performed to assess cell viability as described above. Besides IC50-shift analysis, CompuSyn 3.0.1 software (ComboSyn Inc., Paramus, NJ, USA) was used for the additional analysis of obtained data. This software works with the algorithms of the combination index (CI) method of Chou–Talalay, which is frequently used for the accurate quantification of drug combinations’ outcomes. According to the CI method principle, the combination effects were separated into three categories, including synergistic (CI < 0.9), additive (CI between 0.9–1.1), or antagonistic (CI > 1.1) ones.

MDCKII-ABCC1 = assay: MTT proliferation / drug combination assay; type: cell-based, Canine; conditions: Canis lupus familiaris, comparative MTT, 48 h, read-out: antiproliferative IC50
Procedure: as §1, §2

MDCKII-parent = assay: MTT proliferation / drug combination assay; type: cell-based, Canine; conditions: Canis lupus familiaris; MDCKII-par; comparative MTT, 48 h; read-out: antiproliferative IC50
Procedure: as §1, §2

ABCB1 = ABCB1 (Homo sapiens, UniProt P08183); assay: Accumulation assay with daunorubicin in MDCKII-ABCB1 cells; type: cell-based; design: expressed in transfected cells; host or cells: MDCKII (canine kidney) subline MDCKII-ABCB1, gift of Dr. Alfred Schinkel; conditions: read-out: ABCB1 inhibition IC50
Procedure: The conduction of accumulation assays followed the slightly changed protocol described previously. In the study, MDCKII-par, MDCKII-ABCB1, MDCKII-ABCC1, MDCKII-ABCG2, and primary explants were seeded into 12-well plates in variant densities, 22.0 × 10^4, 15.0 × 10^4, 25.0 × 10^4, 22.0 × 10^4, and 15.0 × 10^4 cells/well, respectively. After 24 h incubation, two washing steps with 1 × PBS were applied. […] The cells were then incubated under standard conditions for 30 min. Next steps included placing the plates on ice, washing the cells with ice-cold 1 × PBS two-times, and detaching the cells with the ice-cold 10 × trypsin without phenol red. Following trypsinization, cells were resuspended in 1 × PBS containing 2% FBS. Subsequently, cell suspensions were transferred into the test tubes and kept on ice. The fluorescence in cells was measured immediately after the collection of their suspensions using flow cytometer Sony SA3800 Spectral Cell Analyzer (Sony Biotechnology, San Jose, CA, USA). SA3800 software (Sony Biotechnology, San Jose, CA, USA) was used to evaluate the data.

Chain of ABCB1 (P08183 whole entry): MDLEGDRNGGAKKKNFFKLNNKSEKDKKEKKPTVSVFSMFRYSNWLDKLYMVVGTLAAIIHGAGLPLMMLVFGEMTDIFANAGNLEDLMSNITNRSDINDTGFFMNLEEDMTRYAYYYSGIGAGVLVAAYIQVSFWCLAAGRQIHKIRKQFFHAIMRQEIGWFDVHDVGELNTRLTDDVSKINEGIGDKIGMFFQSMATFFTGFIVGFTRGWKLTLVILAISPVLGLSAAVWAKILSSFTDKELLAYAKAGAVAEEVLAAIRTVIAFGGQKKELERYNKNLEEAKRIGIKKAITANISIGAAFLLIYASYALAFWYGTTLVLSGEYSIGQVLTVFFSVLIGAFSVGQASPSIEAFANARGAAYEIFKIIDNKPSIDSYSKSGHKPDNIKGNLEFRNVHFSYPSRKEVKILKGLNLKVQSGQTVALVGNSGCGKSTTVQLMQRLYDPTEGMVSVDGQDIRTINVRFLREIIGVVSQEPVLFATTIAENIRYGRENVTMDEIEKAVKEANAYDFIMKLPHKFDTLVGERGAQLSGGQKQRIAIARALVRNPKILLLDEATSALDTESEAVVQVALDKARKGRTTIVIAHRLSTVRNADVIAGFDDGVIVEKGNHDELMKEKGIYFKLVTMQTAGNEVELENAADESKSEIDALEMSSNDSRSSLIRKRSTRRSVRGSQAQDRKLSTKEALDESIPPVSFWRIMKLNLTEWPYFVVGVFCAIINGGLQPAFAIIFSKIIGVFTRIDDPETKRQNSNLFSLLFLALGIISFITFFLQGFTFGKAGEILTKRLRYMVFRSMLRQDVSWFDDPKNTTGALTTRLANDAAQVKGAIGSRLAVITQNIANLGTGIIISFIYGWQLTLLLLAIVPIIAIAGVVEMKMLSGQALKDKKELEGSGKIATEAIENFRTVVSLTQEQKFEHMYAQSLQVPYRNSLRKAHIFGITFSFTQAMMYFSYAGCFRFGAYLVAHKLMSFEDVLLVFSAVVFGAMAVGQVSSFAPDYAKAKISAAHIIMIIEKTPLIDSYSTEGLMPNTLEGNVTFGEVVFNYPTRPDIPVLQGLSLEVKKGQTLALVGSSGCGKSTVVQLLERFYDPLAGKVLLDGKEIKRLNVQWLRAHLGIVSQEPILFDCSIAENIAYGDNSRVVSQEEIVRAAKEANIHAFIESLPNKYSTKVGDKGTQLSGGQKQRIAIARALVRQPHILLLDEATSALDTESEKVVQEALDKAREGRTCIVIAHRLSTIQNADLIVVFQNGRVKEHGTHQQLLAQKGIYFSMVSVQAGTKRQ

`Cn1ncnc1[C@H]1c2n[nH]c(=O)c3cc(F)cc(c23)N[C@@H]1c1ccc(F)cc1` [talazoparib, Talazoparib] gave an IC50 at 48 h [1] of 64.5 µM, an IC50 (MDCKII-ABCC1) of 66 µM and an IC50 (MDCKII-parent) of 69.4 µM. The IC50 (ABCB1) was over 50 µM.
